Reference: US20130252944A1, “NOVEL FUSED PYRAZOLE DERIVATIVES AND THEIR USE AS ALLOSTERIC MODULATORS OF METABOTROPIC GLUTAMATE RECEPTORS” (priority 2010, published 2013)

target: T1, recombinant human mGluR4a receptors (Homo sapiens, UniProt Q14833); test: Fluorescent cell based Ca2+ mobilization assay (FLIPR) on HEK-293 cells expressing human mGluR4; settings: positive allosteric modulation in presence of EC25 glutamate; HEK-293 hmGluR4; mean of at least three independent experiments in duplicate; read-out: Ca^2+ Flux (mean EC50)
T1 construct: expressed in transfected cells
Excerpt: mGluR4 Assay on HEK-Expressing Human mGluR4
The compounds of the present invention are positive allosteric modulators of mGluR4 receptor. Their activity was examined on recombinant human mGluR4a receptors by detecting changes in intracellular Ca^2+concentration, using the fluorescent Ca^2+-sensitive dye Fluo4-(AM) and a Fluorometric Imaging Plate Reader (FLIPR, Molecular Devices, Sunnyvale, Calif.).
The cDNA encoding the human metabotropic glutamate receptor (hmGluR4), (accession number NM_000841.1, NCBI Nucleotide database browser), was subcloned into an expression vector containing also the hygromycin resistance gene. In parallel, the cDNA encoding a G protein allowing redirection of the activation signal to intracellular calcium flux was subcloned into a different expression vector containing also the puromycin resistance gene. Transfection of both these vectors into HEK293 cells with PolyFect reagent (Qiagen) according to supplier's protocol, and hygromycin and puromycin treatment allowed selection of antibiotic resistant cells which had integrated stably one or more copies of the plasmids. Positive cellular clones expressing hmGluR4 were identified in a functional assay measuring changes in calcium fluxes in response to glutamate or selective known mGluR4 orthosteric agonists and antagonists.
HEK-293 cells expressing hmGluR4 were maintained in media containing DMEM, dialyzed Fetal Calf Serum (10%), Glutamax™ (2 mM), Penicillin (100 units/mL), Streptomycin (100 μg/mL), Geneticin (100 μg/mL) and Hygromycin-B (40 μg/mL) and puromycin (1 μg/mL) at 37° C./5% CO2.
Human mGluR4 HEK-293 cells were plated out 24 hours prior to FLIPR^384 assay in black-walled, clear-bottomed, poly-L-ornithine-coated 384-well plates at a density of 25,000 cells/well in a glutamine/glutamate free DMEM medium containing foetal bovine serum (10%), penicillin (100 units/mL) and streptomycin (100 μg/mL) at 37° C./5% CO2.
On the day of the assay, the medium was aspirated and the cells were loaded with a 3 μM solution of Fluo4-AM (LuBioScience, Lucerne, Switzerland) in 0.03% pluronic acid. After 1 hour at 37° C./5% CO2, the non incorporated dye was removed by washing cell plate with the assay buffer and the cells were left in the dark at room temperature for […] before testing. All assays were performed in a pH=7.4 buffered-solution containing 20 mM HEPES, 143 mM NaCl, 6 mM KCl, 1 mM MgSO4, 1 mM CaCl2, 0.125 mM sulfapyrazone and 0.1% glucose.
After 10 s of basal fluorescence recording, various concentrations of the compounds of the invention were added to the cells. Changes in fluorescence levels were first monitored for 180 s in order to detect any agonist activity of the compounds. Then the cells were stimulated by an EC25 glutamate concentration for an additional 110 s in order to measure enhancing activities of the compounds of the invention. EC25 glutamate concentration is the concentration giving 25% of the maximal glutamate response.
The concentration-response curves of representative compounds of the present invention were generated using the Prism GraphPad software (Graph Pad Inc, San Diego, USA). The curves were fitted to a four-parameter logistic equation:
(Y=Bottom+(Top−Bottom)/(1+10̂((LogEC50−X)*Hill Slope)
allowing the determination of EC50 values.
The Table 3 below represents the mean EC50 obtained from at least three independent experiments of selected molecules performed in duplicate.

T1 sequence (Q14833 33-912): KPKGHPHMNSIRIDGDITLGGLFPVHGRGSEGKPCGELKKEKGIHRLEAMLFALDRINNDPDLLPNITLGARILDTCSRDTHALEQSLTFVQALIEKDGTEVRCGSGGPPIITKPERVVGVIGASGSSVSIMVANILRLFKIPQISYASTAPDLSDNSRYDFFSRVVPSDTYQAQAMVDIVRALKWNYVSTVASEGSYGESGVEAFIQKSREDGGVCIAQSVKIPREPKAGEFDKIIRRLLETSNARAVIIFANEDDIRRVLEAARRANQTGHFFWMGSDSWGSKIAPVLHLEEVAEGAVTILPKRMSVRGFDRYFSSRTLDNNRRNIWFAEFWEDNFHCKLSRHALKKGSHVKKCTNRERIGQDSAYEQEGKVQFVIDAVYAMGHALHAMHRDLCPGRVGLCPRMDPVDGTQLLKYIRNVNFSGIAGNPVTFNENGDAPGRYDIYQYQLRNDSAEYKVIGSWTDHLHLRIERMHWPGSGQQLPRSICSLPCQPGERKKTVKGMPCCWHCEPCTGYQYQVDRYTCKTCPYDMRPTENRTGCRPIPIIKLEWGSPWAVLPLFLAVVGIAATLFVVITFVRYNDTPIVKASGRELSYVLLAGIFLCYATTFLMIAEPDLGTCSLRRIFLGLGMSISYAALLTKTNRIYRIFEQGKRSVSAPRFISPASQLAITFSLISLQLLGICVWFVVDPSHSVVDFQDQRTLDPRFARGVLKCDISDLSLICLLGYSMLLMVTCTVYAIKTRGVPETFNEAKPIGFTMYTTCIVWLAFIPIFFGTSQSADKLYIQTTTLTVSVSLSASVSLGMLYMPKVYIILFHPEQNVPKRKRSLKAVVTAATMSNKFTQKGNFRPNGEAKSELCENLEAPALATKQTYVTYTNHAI

| SMILES | EC50 [nM] |
| --- | --- |
| Cc1ccnc(Nc2nc3c(s2)C(C)(C)OC(C)c2n[nH]cc2-3)n1 (stereo not shown) [Compound 1-2, (4-Methyl-pyrimidin-2-yl)-(4,4,6-trimethyl-6,8-dihydro-4H-5-oxa-3-thia-1,7,8-triaza-cyclopenta[e]azulen-2-yl)-amine] | 1000 to 10000 |
| Cc1ccnc(Nc2nc3c(s2)C(C)(C)OCc2n[nH]cc2-3)n1 [Compound 1-4, (4,4-Dimethyl-6,8-dihydro-4H-5-oxa-3-thia-1,7,8-triaza-cyclopenta[e]azulen-2-yl)-(4-methyl-pyrimidin-2-yl)-amine] | 100 to 1000 |
| CCCC1Cc2sc(Nc3nccc(C)n3)nc2-c2cn[nH]c21 (stereo not shown) [Compound 1-5, (4-Methyl-pyrimidin-2-yl)-(5-propyl-5,6-dihydro-4H-3-thia-1,6,7-triaza-as-indacen-2-yl)-amine] | 100 to 1000 |
| CCC1OCc2sc(Nc3nccc(C)n3)nc2-c2c[nH]nc21 (stereo not shown) [Compound 1-8, (6-Ethyl-6,8-dihydro-4H-5-oxa-3-thia-1,7,8-triaza-cyclopenta[e]azulen-2-yl)-(4-methyl-pyrimidin-2-yl)-amine] | < 100 |
| Cc1ccnc(Nc2nc3c(s2)CC(C)(C)C(F)(F)c2[nH]ncc2-3)n1 [Compound 1-9, (6,6-Difluoro-5,5-dimethyl-4,5,6,7-tetrahydro-3-thia-1,7,8-triaza-cyclopenta[e]azulen-2-yl)-(4-methyl-pyrimidin-2-yl)-amine] | 100 to 1000 |
| Cc1ccnc(Nc2nc3c(s2)CCC(C)c2n[nH]cc2-3)n1 (stereo not shown) [Compound 1-12, (4-Methyl-pyrimidin-2-yl)-(6-methyl-4,5,6,8-tetrahydro-3-thia-1,7,8-triaza-cyclopenta[e]azulen-2-yl)-amine] | < 100 |
| Cc1ccnc(Nc2nc3c(s2)COC(C(F)(F)F)c2n[nH]cc2-3)n1 (stereo not shown) [Compound 1-13, (4-Methyl-pyrimidin-2-yl)-(6-trifluoromethyl-6,8-dihydro-4H-5-oxa-3-thia-1,7,8-triaza-cyclopenta[e]azulen-2-yl)-amine] | < 100 |
| COc1ccnc(Nc2nc3c(s2)COC(C)c2[nH]ncc2-3)n1 (stereo not shown) [Compound 1-14, (4-Methoxy-pyrimidin-2-yl)-(6-methyl-6,7-dihydro-4H-5-oxa-3-thia-1,7,8-triaza-cyclopenta[e]azulen-2-yl)-amine] | < 100 |
| COC1Cc2n[nH]cc2-c2nc(Nc3nccc(C)n3)sc2C1 (stereo not shown) [Compound 1-15, (5-Methoxy-4,5,6,8-tetrahydro-3-thia-1,7,8-triaza-cyclopenta[e]azulen-2-yl)-(4-methyl-pyrimidin-2-yl)-amine] | 100 to 1000 |
| Cc1ccnc(Nc2nc3c(s2)COC(C(C)C)c2n[nH]cc2-3)n1 (stereo not shown) [Compound 1-16, (6-Isopropyl-6,8-dihydro-4H-5-oxa-3-thia-1,7,8-triaza-cyclopenta[e]azulen-2-yl)-(4-methyl-pyrimidin-2-yl)-amine] | < 100 |
| Cc1ccnc(Nc2nc3c(s2)CC(F)(F)Cc2n[nH]cc2-3)n1 [Compound 1-18, (5,5-Difluoro-4,5,6,8-tetrahydro-3-thia-1,7,8-triaza-cyclopenta[e]azulen-2-yl)-(4-methyl-pyrimidin-2-yl)-amine] | < 100 |
| CCC1OCc2sc(Nc3ncc(F)cn3)nc2-c2c[nH]nc21 (stereo not shown) [Compound 1-19, (6-Ethyl-6,8-dihydro-4H-5-oxa-3-thia-1,7,8-triaza-cyclopenta[e]azulen-2-yl)-(5-fluoro-pyrimidin-2-yl)-amine] | < 100 |
| CCC1OCc2sc(Nc3ncc(F)c(C)n3)nc2-c2cn[nH]c21 (stereo not shown) [Compound 1-21, (6-Ethyl-6,7-dihydro-4H-5-oxa-3-thia-1,7,8-triaza-cyclopenta[e]azulen-2-yl)-(5-fluoro-4-methyl-pyrimidin-2-yl)-amine] | < 100 |
| CCC1OCc2sc(Nc3nccc(OC)n3)nc2-c2cn[nH]c21 (stereo not shown) [Compound 1-22, (6-Ethyl-6,7-dihydro-4H-5-oxa-3-thia-1,7,8-triaza-cyclopenta[e]azulen-2-yl)-(4-methoxy-pyrimidin-2-yl)-amine] | < 100 |
| COC1CCc2sc(Nc3nccc(C)n3)nc2-c2cn[nH]c21 (stereo not shown) [Compound 1-24, (6-Methoxy-4,5,6,7-tetrahydro-3-thia-1,7,8-triaza-cyclopenta[e]azulen-2-yl)-(4-methyl-pyrimidin-2-yl)-amine] | < 100 |
| CC(C)C1OCc2sc(Nc3cccc(F)n3)nc2-c2cn[nH]c21 (stereo not shown) [Compound 1-26, (6-Fluoro-pyridin-2-yl)-(6-isopropyl-6,7-dihydro-4H-5-oxa-3-thia-1,7,8-triaza-cyclopenta[e]azulen-2-yl)-amine] | 100 to 1000 |
| Cc1ccnc(Nc2nc3c(s2)CCC(C(F)(F)F)c2[nH]ncc2-3)n1 (stereo not shown) [Compound 1-27, (4-Methyl-pyrimidin-2-yl)-(6-trifluoromethyl-4,5,6,7-tetrahydro-3-thia-1,7,8-triaza-cyclopenta[e]azulen-2-yl)-amine] | 100 to 1000 |
| Cc1nc(Nc2nc3c(s2)COC(C(C)C)c2[nH]ncc2-3)ncc1F (stereo not shown) [Compound 1-29, (5-Fluoro-4-methyl-pyrimidin-2-yl)-(6-isopropyl-6,7-dihydro-4H-5-oxa-3-thia-1,7,8-triaza-cyclopenta[e]azulen-2-yl)-amine] | 100 to 1000 |
| Cc1nc(Nc2nc3c(s2)C(=O)CCc2n[nH]cc2-3)ncc1F [Compound 1-30, 2-(5-Fluoro-4-methyl-pyrimidin-2-ylamino)-6,8-dihydro-5H-3-thia-1,7,8-triaza-cyclopenta[e]azulen-4-one] | 1000 to 10000 |

The remaining lines, values ahead:

| EC50 [nM] | SMILES |
| --- | --- |
| 1000 to 10000 | Cc1cc2[nH]ncc2c2nc(Nc3ccccn3)sc12 [Compound 1-1, (4-Methyl-6H-3-thia-1,6,7-triaza-as-indacen-2-yl)-pyridin-2-yl-amine] |
| 100 to 1000 | Cc1ccnc(Nc2nc3c(s2)CCC(O)c2[nH]ncc2-3)n1 (stereo not shown) [Compound 1-3, 2-(4-Methyl-pyrimidin-2-ylamino)-4,5,6,7-tetrahydro-3-thia-1,7,8-triaza-cyclopenta[e]azulen-6-ol] |
| 100 to 1000 | Cc1ccnc(Nc2nc3c(s2)CCCCc2[nH]ncc2-3)n1 [Compound 1-7, (4-Methyl-pyrimidin-2-yl)-(5,6,7,8-tetrahydro-4H-3-thia-1,8,9-triaza-dicyclopenta[a,c]cycloocten-2-yl)-amine] |
| < 100 | Cc1ccnc(Nc2nc3c(s2)COC(C)(C)c2n[nH]cc2-3)n1 [Compound 1-10, (6,6-Dimethyl-6,8-dihydro-4H-5-oxa-3-thia-1,7,8-triaza-cyclopenta[e]azulen-2-yl)-(4-methylpyrimidin-2-yl)-amine] |
| 100 to 1000 | Cc1ccnc(Nc2nc3c(s2)CC(C)Cc2n[nH]cc2-3)n1 (stereo not shown) [Compound 1-11, (4-Methyl-pyrimidin-2-yl)-(5-methyl-4,5,6,8-tetrahydro-3-thia-1,7,8-triaza-cyclopenta[e]azulen-2-yl)-amine] |
| < 100 | Cc1ccnc(Nc2nc3c(s2)CCOc2n[nH]cc2-3)n1 [Compound 1-17, (4,8-Dihydro-5H-6-oxa-3-thia-1,7,8-triaza-cyclopenta[e]azulen-2-yl)-(4-methyl-pyrimidin-2-yl)-amine] |
| < 100 | CCC1OCc2sc(Nc3nsc(C)n3)nc2-c2c[nH]nc21 (stereo not shown) [Compound 1-20, (6-Ethyl-6,8-dihydro-4H-5-oxa-3-thia-1,7,8-triaza-cyclopenta[e]azulen-2-yl)-(5-methyl-[1,2,4]thiadiazol-3-yl)-amine] |
| < 100 | CC1OCc2sc(Nc3cccc(F)n3)nc2-c2c[nH]nc21 (stereo not shown) [Compound 1-23, (6-Fluoro-pyridin-2-yl)-(6-methyl-6,8-dihydro-4H-5-oxa-3-thia-1,7,8-triaza-cyclopenta[e]azulen-2-yl)-amine] |
| < 100 | CC(C)C1OCc2sc(Nc3ncc(F)cn3)nc2-c2cn[nH]c21 (stereo not shown) [Compound 1-28, (5-Fluoro-pyrimidin-2-yl)-(6-isopropyl-6,7-dihydro-4H-5-oxa-3-thia-1,7,8-triaza-cyclopenta[e]azulen-2-yl)-amine] |
